Assays:
5637 = experiment: MTT cell survival / IC50, 5637 cells; format: cell-based, human; conditions: 5637; for Single drug 4X Cell Survival (%): ng/ml: EH 1000, Ci 6000, Mi 800, Pi 160, Pa 640, Ge 20, EH/Ci/Mi regimen; for Cell survival (%): Table S3, ng/ml: Pi 40, Pa 160, EH 250, Ci 1500, Mi 200, 1=Ci/Mi, 2=EH/Ci/Mi, 3=Pa/Ci/Mi, 4=Pi/Ci/Mi
Description: (§1) The clinical grade of the chemotherapeutics (NCI Dictionary of Cancer Terms) was provided by the First Affiliated Hospital of Harbin Medical University: Pirarubicin (Pi, Wanle, Shenzhen), Paclitaxel (Pa, Taiji, Sichuan), Adriamycin (Ad, Pfizer, Jiangsu), Epirubicin Hydrochloride (EH, Haizheng, Zhejiang), Hydroxycamptothecin (Hy, Lishizhen, Hubei), Cisplatin (Ci, Haosen, Jiangsu), Gemcitabine (Ge, Haosen, Jiangsu) and Mitomycin (Mi, Haizheng, Zhejiang). The drug induced cell death was determined by a thiazolyl […] (MTT, 490 nm reading) based cell proliferation assay in the cultured cells following treatment by various concentrations of drugs for 72 hours. The relative chemoresistance to each drug of all cell lines was calculated with the lowest IC50 as a reference. The overall chemoresistance of each cell line was described as “chemoresistance index”, the numerator of the total relative IC50 to all the drugs over the number of drugs to rank the overall resistance state of each cell line to the six chemotherapeutics collectively.
(§2) The relative IC50 (fold) of each drug of all nine cell lines was normalized to the lowest IC50 in the most sensitive cell line (FIG. 2G), to describe the single drug resistance of cell lines. The overall chemoresistance of each cell line, a “chemoresistance index” (the numerator of the total relative IC50 over the number of drugs) (FIG. 2G) were calculated to rank the overall resistance state of each cell line to this six chemotherapeutics.
(§3) Twenty six-drug combinations at the indicated doses were initially generated through a random number generator (using MATLAB MathWorks©, Natick, Mass., U.S.) (The upper half of Table 1). The cell survival (% over the not drug control) of treated cells was determined and then used for a calculation of the average cumulative cell survival (%, ACS: the sum of cell survival (%) per combination divided by the number of cell lines tested). ACS<30% was used to separate the effective from the not-effective combinations.

H-bc = experiment: MTT cell survival / IC50, H-bc cells; format: cell-based, human; conditions: H-bc; for Single drug 4X Cell Survival (%): ng/ml: EH 1000, Ci 6000, Mi 800, Pi 160, Pa 640, Ge 20, EH/Ci/Mi regimen; for Cell survival (%): Table S3, ng/ml: Pi 40, Pa 160, EH 250, Ci 1500, Mi 200, 1=Ci/Mi, 2=EH/Ci/Mi, 3=Pa/Ci/Mi, 4=Pi/Ci/Mi
Description: as §1, §2, §3

T24 = experiment: MTT cell survival / IC50, T24 cells; format: cell-based, human; conditions: for Single drug 4X Cell Survival (%): ng/ml: EH 1000, Ci 6000, Mi 800, Pi 160, Pa 640, Ge 20, EH/Ci/Mi regimen; for Cell survival (%): Table S3, ng/ml: Pi 40, Pa 160, EH 250, Ci 1500, Mi 200, 1=Ci/Mi, 2=EH/Ci/Mi, 3=Pa/Ci/Mi, 4=Pi/Ci/Mi
Description: as §1, §2, §3

EJ = experiment: MTT cell survival / IC50, EJ cells; format: cell-based, human; conditions: for Single drug 4X Cell Survival (%): ng/ml: EH 1000, Ci 6000, Mi 800, Pi 160, Pa 640, Ge 20, EH/Ci/Mi regimen; for Cell survival (%): Table S3, ng/ml: Pi 40, Pa 160, EH 250, Ci 1500, Mi 200, 1=Ci/Mi, 2=EH/Ci/Mi, 3=Pa/Ci/Mi, 4=Pi/Ci/Mi
Description: as §1, §2, §3

Biu87 = experiment: MTT cell survival / IC50, Biu87 cells; format: cell-based, human; conditions: Biu87; for Single drug 4X Cell Survival (%): ng/ml: EH 1000, Ci 6000, Mi 800, Pi 160, Pa 640, Ge 20, EH/Ci/Mi regimen; for Cell survival (%): Table S3, ng/ml: Pi 40, Pa 160, EH 250, Ci 1500, Mi 200, 1=Ci/Mi, 2=EH/Ci/Mi, 3=Pa/Ci/Mi, 4=Pi/Ci/Mi
Description: as §1, §2, §3

UM-UC-3 = experiment: MTT cell survival / IC50, UM-UC-3 cells; format: cell-based, human; conditions: UM-UC-3; for Single drug 4X Cell Survival (%): ng/ml: EH 1000, Ci 6000, Mi 800, Pi 160, Pa 640, Ge 20, EH/Ci/Mi regimen; for Cell survival (%): Table S3, ng/ml: Pi 40, Pa 160, EH 250, Ci 1500, Mi 200, 1=Ci/Mi, 2=EH/Ci/Mi, 3=Pa/Ci/Mi, 4=Pi/Ci/Mi
Description: as §1, §2, §3

SCaBER = experiment: MTT cell survival / IC50, SCaBER squamous carcinoma cells; format: cell-based, human; conditions: for Single drug 4X Cell Survival (%): ng/ml: EH 1000, Ci 6000, Mi 800, Pi 160, Pa 640, Ge 20, EH/Ci/Mi regimen; for Cell survival (%): Table S3, ng/ml: Pi 40, Pa 160, EH 250, Ci 1500, Mi 200, 1=Ci/Mi, 2=EH/Ci/Mi, 3=Pa/Ci/Mi, 4=Pi/Ci/Mi
Description: as §1, §2

SV-HUC-1 = format: cell-based; conditions: SV-HUC-1; ng/ml: EH 1000, Ci 6000, Mi 800, Pi 160, Pa 640, Ge 20; EH/Ci/Mi regimen
Description: as §1, §2

[1] = test system: bladder cancer cell lines; experiment: Average cumulative cell survival (ACS) over the panel of cell lines tested; format: cell-based, human; conditions: for ACS (%) for cancer cells: seven cancer cell lines, ng/ml: EH 1000, Ci 6000, Mi 800, Pi 160, Pa 640, Ge 20, EH/Ci/Mi regimen; for ACS (%): eight cell lines, Table S3, ng/ml: Pi 40, Pa 160, EH 250, Ci 1500, Mi 200, 1=Ci/Mi, 2=EH/Ci/Mi, 3=Pa/Ci/Mi, 4=Pi/Ci/Mi
Description: as §1
The “Differential Evolution” algorithm guided experimental optimization (DE) consisted of three iterative operations: generating drug combinations of experimental testing, acquiring the efficacy of the generated drug combinations with biological assays and recalculating further improved drug combinations using a feedback search algorithm. This example first tested twenty drug combinations at randomized doses. These drug combinations were generated from a random integer matrix generator, coded in MATLAB™ language. These twenty drug combinations were then experimentally tested for cancer cell cytotoxicity. The experimental data were then subjected to calculation with a DE algorithm for new drug combinations based on three major mathematical calculations: “Mutation”, “Crossover” and “Selection”. The equations for each step can be found in the main test. The equations for each step are coded in MATLAB™ language.
as §3, with “combinations. Nine of the twenty combinations tested in the 1st round of iteration fell into this category (the lower half of Table 1).” for “combinations.”

J-82 = experiment: MTT cell survival / IC50, J-82 cells; format: cell-based, human; conditions: J82; Table S3; ng/ml: Pi 40, Pa 160, EH 250, Ci 1500, Mi 200; 1=Ci/Mi, 2=EH/Ci/Mi, 3=Pa/Ci/Mi, 4=Pi/Ci/Mi
Description: as §1, §2, §3

Nc1ccn([C@@H]2O[C@H](CO)[C@@H](O)C2(F)F)c(=O)n1 [Ge, Gemcitabine]
Single drug 4X Cell Survival (%) 5637: 30.06%
Single drug 4X Cell Survival (%) (H-bc): 83.17%
Single drug 4X Cell Survival (%) (T24): 41.49%
Single drug 4X Cell Survival (%) (EJ): 31.95%
Single drug 4X Cell Survival (%) (Biu87): 30.82%
Single drug 4X Cell Survival (%) (UM-UC-3): 46.97%
Single drug 4X Cell Survival (%) (SCaBER): 30.87%
Single drug 4X Cell Survival (%) (SV-HUC-1): 87.83%
ACS (%) for cancer cells [1]: 42.19%

CC(=O)O[C@H]1C(=O)[C@@]2(C)[C@H]([C@H](OC(=O)c3ccccc3)[C@]3(O)C[C@H](OC(=O)[C@H](O)[C@@H](NC(=O)c4ccccc4)c4ccccc4)C(C)=C1C3(C)C)[C@]1(OC(C)=O)CO[C@@H]1C[C@@H]2O [Pa, Paclitaxel]
Cell survival (%) 5637: 6.45%
Single drug 4X Cell Survival (%) 5637: 2.09%
Cell survival (%) (H-bc): 13.96%
Single drug 4X Cell Survival (%) (H-bc): 12.89%
Cell survival (%) (J-82): 38.51%
Cell survival (%) (T24): 11.55%
Single drug 4X Cell Survival (%) (T24): 17.31%
Cell survival (%) (EJ): 33.05%
Single drug 4X Cell Survival (%) (EJ): 26.38%
Cell survival (%) (Biu87): 23.08%
Single drug 4X Cell Survival (%) (Biu87): 17.58%
Cell survival (%) (UM-UC-3): 40.09%
Single drug 4X Cell Survival (%) (UM-UC-3): 27.74%
Cell survival (%) (SCaBER): 57.91%
Single drug 4X Cell Survival (%) (SCaBER): 42.21%
Single drug 4X Cell Survival (%) (SV-HUC-1): 80.17%
ACS (%) [1]: 28.08%
ACS (%) for cancer cells [1]: 20.89%

COc1cccc2c1C(=O)c1c(O)c3c(c(O)c1C2=O)C[C@@](O)(C(=O)CO)CC3O[C@H]1C[C@H](N)[C@H](O[C@@H]2CCCCO2)[C@H](C)O1 (stereo partly drawn) [Pi, (3S)-3-glycoloyl-3,5,12-trihydroxy-10-methoxy-6,11-dioxo-1,2,3,4,6,11-hexahydrotetracen-1-yl 3-amino-2,3,6-trideoxy-4-O-[(2R)-tetrahydro-2H-pyran-2-yl]-α-L-lyxo-hexopyranoside]
Cell survival (%) 5637: 29.22%
Single drug 4X Cell Survival (%) 5637: 3.48%
Cell survival (%) (H-bc): 86.89%
Single drug 4X Cell Survival (%) (H-bc): 16.04%
Cell survival (%) (J-82): 55.37%
Cell survival (%) (T24): 48.33%
Single drug 4X Cell Survival (%) (T24): 39.8%
Cell survival (%) (EJ): 30.38%
Single drug 4X Cell Survival (%) (EJ): 21.25%
Cell survival (%) (Biu87): 41.67%
Single drug 4X Cell Survival (%) (Biu87): 26.98%
Cell survival (%) (UM-UC-3): 65.59%
Single drug 4X Cell Survival (%) (UM-UC-3): 31.44%
Cell survival (%) (SCaBER): 30.04%
Single drug 4X Cell Survival (%) (SCaBER): 10.24%
Single drug 4X Cell Survival (%) (SV-HUC-1): 91.79%
ACS (%) [1]: 48.44%
ACS (%) for cancer cells [1]: 21.32%

Reference: US10238688B2, “Combination therapies for bladder cancer” (GENEDIA BIOTECH CO. LTD., priority 2015, dated 2019)
